test: recombinant barcode read abundance after kanamycin selection (control-corrected) (log10(CPM+1)); higher = more efficient recombination; sequences stand for … in AGTGCAGAGAAAATCGGCCAGTTTTCTCTGCCTGCAGTCCGCATGCCGT…AGATTTATGCAGCGGACTGCCTTTCTCCCAAAGTGATAAACCGGACAGTATCATGGACCGGTTTTCCCGGTAATCCGTATTTGCAAGGTTGGTTTCACT; site = the 11-nt target
Summary of the method: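 This pooled E. coli screen matched targets with IS621 bridge RNA target-binding loops. Plating was done in duplicate on chloramphenicol/ampicillin LB agar as a control and on chloramphenicol/ampicillin/kanamycin plus 0.1 mM IPTG. Recombination efficiency reflects barcode counts at recombinant junctions as counts per million, averaged and control-corrected. The figures are log10(CPM+1).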
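Also: IS621 recombinase and bridge RNA in Escherichia coli cells.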

Sequence | recombinant barcode read abundance (log10)
GTCCCTCCTTGGGTTCTAACCTGTTGCGT (site GTCCCTCCTAT) | 1.34
GTCCTACCTTGGGTTCTAACCTGTTGCAA (site GTCCTAACTGT) | 0.42
GTCCTACCTTGGGTTCTAACCTGTTGCAA (site GTCCTACCTTT) | 1.45
GTCGAGCCTTGGGTTCTAACCTGTTGCCT (site GTCGAGCCTAG) | 2.12
GTCGAGCCTTGGGTTCTAACCTGTTGCCT (site GTTCAGCCTAG) | 0.157
GTCGAGTCTTGGGTTCTAACCTGTTGCCT (site GTCGACACTAG) | 0.186
GTCGAGTCTTGGGTTCTAACCTGTTGCCT (site GTCGAGTCTAG) | 1.61
GTCGCTACTTGGGTTCTAACCTGTTGCCG (site GTCACTACTCG) | 0
GTCGCTACTTGGGTTCTAACCTGTTGCCG (site GTCCCTACTCG) | 0.0655
GTCGCTACTTGGGTTCTAACCTGTTGCCG (site GTCGCTACTCG) | 0.95
GTCGCTACTTGGGTTCTAACCTGTTGCCG (site GTCTCTACTCG) | 1.35
GTCGCTACTTGGGTTCTAACCTGTTGCGG (site GTCGCTACTCC) | 0.785
GTCGCTACTTGGGTTCTAACCTGTTGCGG (site GTCTCTACTCC) | 0.667
GTCGGTCCTTGGGTTCTAACCTGTTGCAC (site GTCGGTCCTGT) | 2.49
GTCGGTCCTTGGGTTCTAACCTGTTGCAC (site TGAAACTCTCC) | 0.0122
GTCGTACCTTGGGTTCTAACCTGTTGCCT (site GTCATACCTAG) | 0.348
GTCGTACCTTGGGTTCTAACCTGTTGCCT (site GTCCTACCTAG) | 0.0361
GTCGTACCTTGGGTTCTAACCTGTTGCCT (site GTCGTACCTAG) | 0.704
GTCGTACCTTGGGTTCTAACCTGTTGCCT (site GTCTTACCTAG) | 0.221
GTCGTAGCTTGGGTTCTAACCTGTTGCTA (site GTCGAACCTTA) | 0.139
GTCGTAGCTTGGGTTCTAACCTGTTGCTA (site GTCGTAGCTTA) | 0.353
GTCGTCGCTTGGGTTCTAACCTGTTGCCT (site GTCGTCACTAG) | 0.136
GTCGTCGCTTGGGTTCTAACCTGTTGCCT (site GTCGTCCCTAG) | 0.0726
GTCGTCGCTTGGGTTCTAACCTGTTGCCT (site GTCGTCGCTAG) | 0.376
GTCGTCGCTTGGGTTCTAACCTGTTGCCT (site GTCGTCTCTAG) | 0.0427
GTCTAAGCTTGGGTTCTAACCTGTTGCCG (site GTCTAAGCTCG) | 0.59

Sequence | recombinant barcode read abundance (log10)
GTCTAAGCTTGGGTTCTAACCTGTTGCCG (site GTCTACGCTTG) | 0.0178
GTCTAAGCTTGGGTTCTAACCTGTTGCTT (site GTCTAAGCTAA) | 0.0172
GTCTAAGCTTGGGTTCTAACCTGTTGCTT (site GTCTATGCTAC) | 0.295
GTCTAATCTTGGGTTCTAACCTGTTGCAT (site ACAGGTCCTCG) | 0.0725
GTCTAATCTTGGGTTCTAACCTGTTGCAT (site GTCTAATCTAT) | 1.02
GTCTCGTCTTGGGTTCTAACCTGTTGCTT (site GTCTCGTCTAA) | 0.246
GTCTCGTCTTGGGTTCTAACCTGTTGCTT (site GTCTCTTCTTA) | 0.0559
GTCTGAGCTTGGGTTCTAACCTGTTGCCT (site GTCTAAGCTAG) | 0.241
GTCTGAGCTTGGGTTCTAACCTGTTGCCT (site GTCTGAGCTAG) | 0.355
GTCTTATCTTGGGTTCTAACCTGTTGCCT (site GTCTAATCTAG) | 0.0535
GTCTTATCTTGGGTTCTAACCTGTTGCCT (site GTCTCATCTAG) | 0.0374
GTCTTATCTTGGGTTCTAACCTGTTGCCT (site GTCTGATCTAG) | 0.24
GTCTTATCTTGGGTTCTAACCTGTTGCCT (site GTCTTATCTAG) | 1.14
GTCTTGACTTGGGTTCTAACCTGTTGCCA (site GTCTTAACTCG) | 0.0812
GTCTTGACTTGGGTTCTAACCTGTTGCCA (site GTCTTGACTTG) | 0.102
GTGAAAGCTTGGGTTCTAACCTGTTGCCA (site GTGAAAGCTTG) | 0.73
GTGAAAGCTTGGGTTCTAACCTGTTGCCA (site GTGGAAGCTTG) | 0.0113
GTGAACCCTTGGGTTCTAACCTGTTGCAA (site GTGAACCCTTT) | 1.66
GTGAACCCTTGGGTTCTAACCTGTTGCAA (site TCCGGAGCTCG) | 0.103
GTGAACCCTTGGGTTCTAACCTGTTGCAG (site GTGAACCCTCT) | 2.11
GTGAACCCTTGGGTTCTAACCTGTTGCAG (site GTGATCCCTCT) | 0.0104
GTGAAGACTTGGGTTCTAACCTGTTGCTT (site AACGTACCTCT) | 0.125
GTGAAGACTTGGGTTCTAACCTGTTGCTT (site GTGAAGACTAA) | 1.41
GTGACCTCTTGGGTTCTAACCTGTTGCCT (site GCTACCTCTAG) | 0.0896
GTGACCTCTTGGGTTCTAACCTGTTGCCT (site GTGACCTCTAG) | 1.49
GTGAGAACTTGGGTTCTAACCTGTTGCCA (site CGTGACCCTCC) | 0.0895

Sequence | recombinant barcode read abundance (log10)
GTGAGAACTTGGGTTCTAACCTGTTGCCA (site GTGAGAACTTG) | 0.588
GTGAGCACTTGGGTTCTAACCTGTTGCGG (site GTGAGAGCTCC) | 0.0559
GTGAGCACTTGGGTTCTAACCTGTTGCGG (site GTGAGCACTCC) | 1.84
GTGAGGACTTGGGTTCTAACCTGTTGCCA (site GTAACGACTTG) | 0.252
GTGAGGACTTGGGTTCTAACCTGTTGCCA (site GTGAGGACTTG) | 1.53
GTGAGGTCTTGGGTTCTAACCTGTTGCTT (site GTGAGGTCTAA) | 2.01
GTGAGGTCTTGGGTTCTAACCTGTTGCTT (site GTGAGGTCTAC) | 0.229
GTGAGGTCTTGGGTTCTAACCTGTTGCTT (site GTGAGGTCTAG) | 1.46
GTGAGGTCTTGGGTTCTAACCTGTTGCTT (site GTGAGGTCTAT) | 1.38
GTGAGTGCTTGGGTTCTAACCTGTTGCCA (site ATAAGTGCTTG) | 0.475
GTGAGTGCTTGGGTTCTAACCTGTTGCCA (site GTGAGTGCTTG) | 0.723
GTGATCCCTTGGGTTCTAACCTGTTGCAG (site GTGAACCCTCT) | 0.184
GTGATCCCTTGGGTTCTAACCTGTTGCAG (site GTGATCCCTCT) | 1.79
GTGCAACCTTGGGTTCTAACCTGTTGCCT (site AGTGTCACTCC) | 0.056
GTGCAACCTTGGGTTCTAACCTGTTGCCT (site GTGCAACCTAG) | 1.34
GTGCACACTTGGGTTCTAACCTGTTGCCA (site GTGCAAACTAG) | 0.0839
GTGCACACTTGGGTTCTAACCTGTTGCCA (site GTGCACACTTG) | 0.736
GTGCCCGCTTGGGTTCTAACCTGTTGCAG (site AAATGACCTAC) | 0.0527
GTGCCCGCTTGGGTTCTAACCTGTTGCAG (site GTGCCCGCTCT) | 0.961
GTGCCCTCTTGGGTTCTAACCTGTTGCCG (site GTGCCCGCTCC) | 0.0127
GTGCCCTCTTGGGTTCTAACCTGTTGCCG (site GTGCCCTCTCG) | 1.66
GTGCCTCCTTGGGTTCTAACCTGTTGCTT (site GTGCCTCCTAA) | 1.01
GTGCCTCCTTGGGTTCTAACCTGTTGCTT (site GTGTATCCTAA) | 0.0505
GTGCGCTCTTGGGTTCTAACCTGTTGCCG (site GTGAGCCCTCG) | 0.076
GTGCGCTCTTGGGTTCTAACCTGTTGCCG (site GTGCGCTCTCG) | 1.49

— the supplement of paper PMC11208160
